The values below come from patent US20190322676A1, “CERAMIDE GALACTOSYLTRANSFERASE INHIBITORS FOR THE TREATMENT OF DISEASE” (BioMarin Pharmaceutical Inc., priority 2016, published 2019).

In general, IC50 refers to the midpoint of a concentration-inhibition curve. High values mean weaker potency in that assay, low ones greater potency in that assay.

Structures can show the parent of a compound that is named as a salt.

This assay addresses T1, human CGT (ceramide galactosyltransferase), CHO/CGT lysate (Homo sapiens, UniProt Q16880).
T1 construct: Full-length human CGT cDNA was cloned into the BamH1/Xho1 site of pcDNA3.1 (+); expressed in transfected cells; host or cells: Chinese hamster ovary (CHO) cells; lysate prepared with M-PER
T1 sequence (Q16880 21-541): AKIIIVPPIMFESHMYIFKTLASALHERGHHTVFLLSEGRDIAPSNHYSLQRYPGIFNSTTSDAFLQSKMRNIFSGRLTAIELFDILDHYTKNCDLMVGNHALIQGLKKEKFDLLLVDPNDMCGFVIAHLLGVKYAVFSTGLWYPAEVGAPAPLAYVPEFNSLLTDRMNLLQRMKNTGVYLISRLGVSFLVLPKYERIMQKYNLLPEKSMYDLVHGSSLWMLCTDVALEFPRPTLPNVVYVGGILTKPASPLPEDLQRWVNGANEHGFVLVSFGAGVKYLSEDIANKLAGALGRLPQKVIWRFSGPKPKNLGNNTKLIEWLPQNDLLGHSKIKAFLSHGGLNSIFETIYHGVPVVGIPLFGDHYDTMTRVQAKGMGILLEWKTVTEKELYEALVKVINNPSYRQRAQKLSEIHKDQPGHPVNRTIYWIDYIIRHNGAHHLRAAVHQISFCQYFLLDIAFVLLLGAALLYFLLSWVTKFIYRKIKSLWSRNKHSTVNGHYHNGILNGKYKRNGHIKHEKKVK
Nature of the assay: CGT enzyme assay, RapidFire/MS/MS readout (Table 1 ranges with one asterisk *). As to conditions: RapidFire method (range with one asterisk *). In kind it is biochemical. Put shortly:
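IC50s come from variable-slope dose-response fits of internal-standard-normalized C6-NBD-dihydro-galactosylceramide, measured by RapidFire/MS/MS (ESI negative). Reactions: 1 h, 37 °C, human CGT-expressing CHO lysate (4 μg), 0.001–50 μM compound, 10 μM NBD-dihydro-ceramide, 17.5 μM UDP-galactose, 0.5% DMSO, pH 7.2; 0.01% Tween 80 added for ** values.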
Consider `NC1CCN(C(=O)[C@H](NS(=O)(=O)c2ccc3cc(OC4CCCC4)ccc3c2)C(F)(F)c2ccc(-c3ccccc3)cc2)CC1` [Compound 43-2, (S)—N-(1-([1,1′-biphenyl]-4-yl)-3-(4-aminopiperidin-1-yl)-1,1-difluoro-3-oxopropan-2-yl)-6-(cyclopentyloxy)naphthalene-2-sulfonamide], for which the IC50 is 1 to 10 µM. As for `CN([C@H](C(=O)N1CCC(N)CC1)C(F)(F)c1ccc(Br)cc1)S(=O)(=O)c1ccc2cc(OC3CCCC3)ccc2c1` [Compound 44-1, (R)—N-(3-(4-aminopiperidin-1-yl)-1-(4-bromophenyl)-1,1-difluoro-3-oxopropan-2-yl)-6-(cyclopentyloxy)-N-methylnaphthalene-2-sulfonamide], the figure is less than 1 µM; as for `CN([C@@H](C(=O)N1CCC(N)CC1)C(F)(F)c1ccc(Br)cc1)S(=O)(=O)c1ccc2cc(OC3CCCC3)ccc2c1` [Compound 44-2, (S)—N-(3-(4-aminopiperidin-1-yl)-1-(4-bromophenyl)-1,1-difluoro-3-oxopropan-2-yl)-6-(cyclopentyloxy)-N-methylnaphthalene-2-sulfonamide], 1 to 10 µM. Turning to `COc1ccc(C(F)(F)[C@H](NS(=O)(=O)c2ccc3cc(OC4CCCC4)ccc3c2)C(=O)N2C3CCC2CC(N)C3)cc1` (stereo partly drawn) [Compound 45-1, N-((2R)-3-(3-amino-8-azabicyclo[3.2.1]octan-8-yl)-1,1-difluoro-1-(4-methoxyphenyl)-3-oxopropan-2-yl)-6-(cyclopentyloxy)naphthalene-2-sulfonamide], the IC50 was in the range of 10 to 30 µM. As for `COc1ccc(C(F)(F)[C@@H](NS(=O)(=O)c2ccc3cc(OC4CCCC4)ccc3c2)C(=O)N2C3CCC2CC(N)C3)cc1` (stereo partly drawn) [Compound 45-2, N-((2S)-3-(3-amino-8-azabicyclo[3.2.1]octan-8-yl)-1,1-difluoro-1-(4-methoxyphenyl)-3-oxopropan-2-yl)-6-(cyclopentyloxy)naphthalene-2-sulfonamide], the figure is 1 to 10 µM; as for `CC(C)Oc1ccc2cc(S(=O)(=O)N(C)[C@H](C(=O)N3C4CCC3CC(N)C4)C(F)(F)c3ccc(Br)cc3)ccc2c1` (stereo partly drawn) [Compound 46-1, N-((2R)-3-(3-amino-8-azabicyclo[3.2.1]octan-8-yl)-1-(4-bromophenyl)-1,1-difluoro-3-oxopropan-2-yl)-6-isopropoxy-N-methylnaphthalene-2-sulfonamide trifluoroacetate], 1 to 10 µM; as for `CC(C)Oc1ccc2cc(S(=O)(=O)N(C)[C@@H](C(=O)N3C4CCC3CC(N)C4)C(F)(F)c3ccc(Br)cc3)ccc2c1` (stereo partly drawn) [Compound 46-2, N-((2S)-3-(3-amino-8-azabicyclo[3.2.1]octan-8-yl)-1-(4-bromophenyl)-1,1-difluoro-3-oxopropan-2-yl)-6-isopropoxy-N-methylnaphthalene-2-sulfonamide trifluoroacetate], 30 to 100 µM.

Regarding `NC1CC2CCC(C1)N2C(=O)[C@@H](NS(=O)(=O)c1ccc2cc(OC3CCC3)ccc2c1)C(F)(F)c1ccc(Br)cc1` (stereo partly drawn) [Compound 47-1, N-((2R)-3-(3-amino-8-azabicyclo[3.2.1]octan-8-yl)-1-(4-bromophenyl)-1,1-difluoro-3-oxopropan-2-yl)-6-cyclobutoxynaphthalene-2-sulfonamide], the IC50 fell in the range of 1 to 10 µM. As for `NC1CC2CCC(C1)N2C(=O)[C@H](NS(=O)(=O)c1ccc2cc(OC3CCC3)ccc2c1)C(F)(F)c1ccc(Br)cc1` (stereo partly drawn) [Compound 47-2, N-((2S)-3-(3-amino-8-azabicyclo[3.2.1]octan-8-yl)-1-(4-bromophenyl)-1,1-difluoro-3-oxopropan-2-yl)-6-cyclobutoxynaphthalene-2-sulfonamide], the figure is 10 to 30 µM. Under `CN([C@H](C(=O)N1C2CCC1CC(N)C2)C(F)(F)c1ccc(-c2ccccc2)cc1)S(=O)(=O)c1ccc2cc(OC3CCCC3)ccc2c1` (stereo partly drawn) [Compound 49-1, N-((2R)-1-([1,1′-biphenyl]-4-yl)-3-(3-amino-8-azabicyclo[3.2.1]octan-8-yl)-1,1-difluoro-3-oxopropan-2-yl)-6-(cyclopentyloxy)-N-methylnaphthalene-2-sulfonamide] stands 1 to 10 µM; under `CN([C@@H](C(=O)N1C2CCC1CC(N)C2)C(F)(F)c1ccc(-c2ccccc2)cc1)S(=O)(=O)c1ccc2cc(OC3CCCC3)ccc2c1` (stereo partly drawn) [Compound 49-2, N-((2S)-1-([1,1′-biphenyl]-4-yl)-3-(3-amino-8-azabicyclo[3.2.1]octan-8-yl)-1,1-difluoro-3-oxopropan-2-yl)-6-(cyclopentyloxy)-N-methylnaphthalene-2-sulfonamide], 10 to 30 µM. `NC1CC2CCC(C1)N2C(=O)[C@@H](NS(=O)(=O)c1ccc(OCC2CCCCC2)cc1)C(F)(F)c1ccc(-c2ccc(Cl)cc2)cc1` (stereo partly drawn) [Compound 50-1, N-((2R)-3-(3-amino-8-azabicyclo[3.2.1]octan-8-yl)-1-(4′-chloro-[1,1′-biphenyl]-4-yl)-1,1-difluoro-3-oxopropan-2-yl)-4-(cyclohexylmethoxy) benzenesulfonamide trifluoroacetate] showed an IC50 of less than 1 µM. Under `NC1CC2CCC(C1)N2C(=O)[C@H](NS(=O)(=O)c1ccc(OCC2CCCCC2)cc1)C(F)(F)c1ccc(-c2ccc(Cl)cc2)cc1` (stereo partly drawn) [Compound 50-2, N-((2S)-3-(3-amino-8-azabicyclo[3.2.1]octan-8-yl)-1-(4′-chloro-[1,1′-biphenyl]-4-yl)-1,1-difluoro-3-oxopropan-2-yl)-4-(cyclohexylmethoxy)benzenesulfonamide trifluoroacetate] stands 10 to 30 µM. In turn, `CCCCOc1ccc(C(F)(F)[C@@H](C(=O)N2C3CCC2CC(N)C3)N(C)S(=O)(=O)c2ccc3cc(OC4CCCC4)ccc3c2)cc1` (stereo partly drawn) [Compound 51-1, N-((2R)-3-(3-amino-8-azabicyclo[3.2.1]octan-8-yl)-1-(4-butoxyphenyl)-1,1-difluoro-3-oxopropan-2-yl)-6-(cyclopentyloxy)-N-methylnaphthalene-2-sulfonamide] came in with an IC50 of 1 to 10 µM. Under `CCCCOc1ccc(C(F)(F)[C@H](C(=O)N2C3CCC2CC(N)C3)N(C)S(=O)(=O)c2ccc3cc(OC4CCCC4)ccc3c2)cc1` (stereo partly drawn) [Compound 51-2, N-((2S)-3-(3-amino-8-azabicyclo[3.2.1]octan-8-yl)-1-(4-butoxyphenyl)-1,1-difluoro-3-oxopropan-2-yl)-6-(cyclopentyloxy)-N-methylnaphthalene-2-sulfonamide] stands 1 to 10 µM; under `CN([C@H](C(=O)N1C2CCC1CC(N)C2)C(F)(F)c1ccc(Cl)cc1)S(=O)(=O)c1ccc2cc(OC3CCCC3)ccc2c1` (stereo partly drawn) [Compound 52-1, N-((2R)-3-(3-amino-8-azabicyclo[3.2.1]octan-8-yl)-1-(4-chlorophenyl)-1,1-difluoro-3-oxopropan-2-yl)-6-(cyclopentyloxy)-N-methylnaphthalene-2-sulfonamide], less than 1 µM. As for `CN([C@@H](C(=O)N1C2CCC1CC(N)C2)C(F)(F)c1ccc(Cl)cc1)S(=O)(=O)c1ccc2cc(OC3CCCC3)ccc2c1` (stereo partly drawn) [Compound 52-2, N-((2S)-3-(3-amino-8-azabicyclo[3.2.1]octan-8-yl)-1-(4-chlorophenyl)-1,1-difluoro-3-oxopropan-2-yl)-6-(cyclopentyloxy)-N-methylnaphthalene-2-sulfonamide], the half-inhibitory concentration (IC50) was 30 to 100 µM. The compound `CCCCOc1ccc(C(F)(F)[C@@H](C(=O)N2CCC(N)CC2)N(C)S(=O)(=O)c2ccc3cc(OC4CCCC4)ccc3c2)cc1` [Compound 53-1, (R)—N-(3-(4-aminopiperidin-1-yl)-1-(4-butoxyphenyl)-1,1-difluoro-3-oxopropan-2-yl)-6-(cyclopentyloxy)-N-methylnaphthalene-2-sulfonamide] displayed an IC50 of 1 to 10 µM.

In turn, `CCCCOc1ccc(C(F)(F)[C@H](C(=O)N2CCC(N)CC2)N(C)S(=O)(=O)c2ccc3cc(OC4CCCC4)ccc3c2)cc1` [Compound 53-2, (S)—N-(3-(4-aminopiperidin-1-yl)-1-(4-butoxyphenyl)-1,1-difluoro-3-oxopropan-2-yl)-6-(cyclopentyloxy)-N-methylnaphthalene-2-sulfonamide] had an IC50 of 10 to 30 µM. Under `NC1CC2CCC(C1)N2C(=O)[C@@H](NS(=O)(=O)c1ccc2cc(OC3CCCC3)ccc2c1)C(F)(F)c1ccc(C(F)(F)F)cc1` (stereo partly drawn) [Compound 54-1, N-((2R)-3-(3-amino-8-azabicyclo[3.2.1]octan-8-yl)-1,1-difluoro-3-oxo-1-(4-(trifluoromethyl)phenyl)propan-2-yl)-6-(cyclopentyloxy)naphthalene-2-sulfonamide] stands less than 1 µM; under `NC1CC2CCC(C1)N2C(=O)[C@H](NS(=O)(=O)c1ccc2cc(OC3CCCC3)ccc2c1)C(F)(F)c1ccc(C(F)(F)F)cc1` (stereo partly drawn) [Compound 54-2, N-((2S)-3-(3-amino-8-azabicyclo[3.2.1]octan-8-yl)-1,1-difluoro-3-oxo-1-(4-(trifluoromethyl)phenyl)propan-2-yl)-6-(cyclopentyloxy) naphthalene-2-sulfonamide], 10 to 30 µM.
